Molecules are shown by their SMILES. Like-named read-outs stand apart in the source and are kept apart here.

This experiment has as its target NR2B-subtype NMDA receptors (Rattus norvegicus (Rat), UniProt P35439+Q00960). As to the kind of experiment: Radioligand binding assay (3H Ro 25-6981 competition, forebrain membranes). As to conditions: 3H Ro 25-6981 (4 nM). The method, boiled down:
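Rat forebrain membranes competed against [3H]Ro 25-6981 for 1 hr at room temperature, then filtered onto PEI-treated GF/B plates and counted by scintillation. CPM converted to % inhibition, concentration-response curves fitted, Ki derived from at least two experiments.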

Chain of NR2B-subtype NMDA receptors (Q00960 27-1482, other chains not shown): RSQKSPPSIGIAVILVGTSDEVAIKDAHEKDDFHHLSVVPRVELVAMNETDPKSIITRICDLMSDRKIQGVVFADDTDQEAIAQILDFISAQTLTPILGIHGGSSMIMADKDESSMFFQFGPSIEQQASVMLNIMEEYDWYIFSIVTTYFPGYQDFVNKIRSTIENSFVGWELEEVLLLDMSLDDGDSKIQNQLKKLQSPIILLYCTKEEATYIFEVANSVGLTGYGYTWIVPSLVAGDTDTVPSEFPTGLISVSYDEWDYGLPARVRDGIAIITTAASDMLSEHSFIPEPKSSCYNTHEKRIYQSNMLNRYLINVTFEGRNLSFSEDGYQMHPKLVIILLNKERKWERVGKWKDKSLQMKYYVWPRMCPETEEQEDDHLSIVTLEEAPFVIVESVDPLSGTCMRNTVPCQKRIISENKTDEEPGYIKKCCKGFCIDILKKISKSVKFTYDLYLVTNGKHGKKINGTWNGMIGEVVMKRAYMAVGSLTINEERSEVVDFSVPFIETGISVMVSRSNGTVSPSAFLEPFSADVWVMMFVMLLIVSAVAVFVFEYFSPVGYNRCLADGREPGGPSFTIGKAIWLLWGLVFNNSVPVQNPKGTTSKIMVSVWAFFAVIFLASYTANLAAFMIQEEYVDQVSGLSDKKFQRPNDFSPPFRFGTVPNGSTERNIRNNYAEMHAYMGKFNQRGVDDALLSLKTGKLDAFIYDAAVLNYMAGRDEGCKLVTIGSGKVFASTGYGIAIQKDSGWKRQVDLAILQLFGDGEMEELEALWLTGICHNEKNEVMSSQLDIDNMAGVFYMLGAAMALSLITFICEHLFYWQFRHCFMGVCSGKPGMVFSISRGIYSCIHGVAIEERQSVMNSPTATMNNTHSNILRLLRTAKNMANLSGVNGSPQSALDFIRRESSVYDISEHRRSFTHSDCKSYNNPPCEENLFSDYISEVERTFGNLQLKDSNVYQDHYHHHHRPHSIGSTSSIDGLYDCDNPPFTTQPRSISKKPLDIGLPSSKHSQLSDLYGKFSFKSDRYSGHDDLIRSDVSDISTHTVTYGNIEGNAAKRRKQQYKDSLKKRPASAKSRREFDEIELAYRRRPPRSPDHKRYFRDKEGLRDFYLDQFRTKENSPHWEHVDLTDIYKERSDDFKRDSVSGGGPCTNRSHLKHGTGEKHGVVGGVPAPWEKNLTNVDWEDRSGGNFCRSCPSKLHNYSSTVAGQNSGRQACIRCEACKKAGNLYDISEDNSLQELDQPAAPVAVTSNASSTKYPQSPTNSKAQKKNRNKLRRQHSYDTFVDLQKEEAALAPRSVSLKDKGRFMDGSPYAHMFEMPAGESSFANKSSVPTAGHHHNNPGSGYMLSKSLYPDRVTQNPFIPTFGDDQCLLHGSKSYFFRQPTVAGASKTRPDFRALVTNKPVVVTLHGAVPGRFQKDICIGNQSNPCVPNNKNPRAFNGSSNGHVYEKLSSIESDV

For `C[C@@H](c1ccccc1)N1CCC(N2CCC(c3ccc(O)cc3)CC2)C1=O` (stereo partly drawn) [Example 32, 3-(4-(4-Hydroxyphenyl)piperidin-1-yl)-1-((S)-1-phenylethyl)pyrrolidin-2-one], where the note is “read-out: NR2B Binding Ki”, the Ki is 100 nM. Still for that read-out and setting: the result for `O=C1[C@@H](N2CCC(c3ccc(O)cc3)CC2)CCN1Cc1ccc(O)cc1` [Example 25a, (S)-1-(4-Hydroxybenzyl)-3-(4-(4-hydroxyphenyl)piperidin-1-yl)pyrrolidin-2-one] reads 1200 nM; that for `Cc1ccc(CN2CC[C@H](N3CC(c4ccc(O)cc4)C3)C2=O)cc1` [Example 28a, (S)-3-(3-(4-Hydroxyphenyl)azetidin-1-yl)-1-(4-methylbenzyl)pyrrolidin-2-one], 420 nM. Still for that read-out and setting: for `O=C1C(N2CCCC(c3ccc(O)cc3)CC2)CCN1Cc1ccc(F)cc1` (stereo not shown) [Example 35, 1-(4-Fluorobenzyl)-3-(4-(4-hydroxyphenyl)azepan-1-yl)pyrrolidin-2-one] the value was 17 nM; for `O=C1[C@@H](N2CCC(c3ccc(O)cc3)C(F)(F)C2)CCN1Cc1ccc(C(F)(F)F)cc1` (single isomer, unassigned) [Example 99, P-1], 380 nM.

For the compound `O=C1C(N2CCC(c3ccc(O)cc3)CC2)CCCN1Cc1ccccc1` (stereo not shown) [Example 40, 1′-Benzyl-4-(4-hydroxyphenyl)-[1,3′-bipiperidin]-2′-one], the Ki (read-out: NR2B Binding Ki) turned out to be 480 nM. Turning to `O=C1[C@@H](N2CC[C@H](c3ccc(O)cc3)[C@@H](F)C2)CCN1Cc1ccc(C(F)(F)F)cc1` [Example 87, (S)-3-((3R,4R)-3-Fluoro-4-(4-hydroxyphenyl)piperidin-1-yl)-1-(4-(trifluoromethyl)benzyl)-pyrrolidin-2-one], the Ki (read-out: NR2B Binding Ki) amounted to 540 nM.

Regarding `Cc1ccc(N2CC[C@H](N3CC[C@H](c4ccc(O)cc4)[C@@H](F)C3)C2=O)cc1F` [Example 49, P-1, (S)-3-((3R,4R)-3-fluoro-4-(4-hydroxyphenyl)piperidin-1-yl)-1-(3-fluoro-4-methylphenyl)pyrrolidin-2-one], the Ki (read-out: NR2B Binding Ki) was found to be 420 nM. On the same count and under the same terms, for `C[C@@H](c1ccc(F)cc1)N1CCC(N2CCC(c3ccc(O)cc3)C(F)(F)C2)C1=O` (single isomer, unassigned) [Example 56, P-1] the value was not below 5000 nM. On the same count and under the same terms, the result for `Cc1ccc(CN2CCC(N3CCCC(c4ccc(O)cc4)CC3)C2=O)cc1` (stereo not shown) [Example 36, 3-(4-(4-Hydroxyphenyl)azepan-1-yl)-1-(4-methylbenzyl)-pyrrolidin-2-one] reads 34 nM. Turning to `O=C1C(N2CCC(c3ccc(O)cc3)C(F)(F)C2)CCN1Cc1ccc(OC(F)F)cc1` (stereo not shown) [Example 94, 3-(3,3-Difluoro-4-(4-hydroxyphenyl)piperidin-1-yl)-1-(4-(difluoromethoxy)benzyl)-pyrrolidin-2-one], the inhibition constant Ki (read-out: NR2B Binding Ki) was determined as 390 nM. Same read-out and setting: for `O=C1C(N2CC[C@@H](c3ccc(O)cc3)[C@H](F)C2)CCN1Cc1ccc(F)c(Cl)c1` (stereo partly drawn) [Example 73, 1-(3-Chloro-4-fluorobenzyl)-3-((3S,4S)-3-fluoro-4-(4-hydroxyphenyl)piperidin-1-yl)pyrrolidin-2-one] the value was 330 nM; for `O=C1[C@H](N2CC[C@@H](c3ccc(O)c(F)c3)[C@H](F)C2)CCN1Cc1ccc(Cl)cc1` [Example 116, (R)-1-(4-chlorobenzyl)-3-((3S,4S)-3-fluoro-4-(3-fluoro-4-hydroxyphenyl)piperidin-1-yl)pyrrolidin-2-one], 2 nM; for `C[C@@H](c1ccc(F)cc1)N1CC[C@@H](N2CC[C@H](c3ccc(O)cc3)[C@@H](F)C2)C1=O` [Example 50, P-2, (R)-3-((3R,4R)-3-fluoro-4-(4-hydroxyphenyl)piperidin-1-yl)-1-((S)-1-(4-fluorophenyl)ethyl)pyrrolidin-2-one], 890 nM. Same read-out and setting: the result for `Cc1ccc(CN2CC[C@@H](N3CC[C@H](c4ccc(O)c(F)c4)[C@@H](F)C3)C2=O)cc1F` [Example 45, P-4, (R)-3-((3R,4R)-3-fluoro-4-(3-fluoro-4-hydroxyphenyl)piperidin-1-yl)-1-(3-fluoro-4-methylbenzyl)pyrrolidin-2-one] reads 2.5 nM. On to `O=C1C(N2CCC(c3ccc(O)cc3)C(O)C2)CCN1Cc1ccc(F)cc1` (single isomer, unassigned) [Example 44, E-1, 1-(4-Fluorobenzyl)-3-(cis-3-hydroxy-4-(4-hydroxyphenyl)piperidin-1-yl)pyrrolidin-2-one], for which, under “listed as 44, E-1, read-out: NR2B Binding Ki”, the Ki came to 650 nM. For the compound `O=C1[C@H](N2CC[C@@H](c3ccc(O)cc3)[C@H](F)C2)CCN1Cc1ccc(F)cc1` [Example 48, P-3], the Ki (read-out: NR2B Binding Ki) was determined as 11 nM. `O=C1[C@@H](N2CC[C@H](c3ccc(O)cc3)[C@@H](F)C2)CCN1Cc1ccc(F)cc1` [Example 48, P-2]: the Ki (read-out: NR2B Binding Ki) was found to be 1700 nM. For `C[C@@H](c1ccc(F)cc1)N1CC[C@H](N2CC[C@@H](c3ccc(O)cc3)[C@H](F)C2)C1=O` [Example 50, P-3, (S)-3-((3S,4S)-3-Fluoro-4-(4-hydroxyphenyl)piperidin-1-yl)-1-((S)-1-(4-fluorophenyl)ethyl)pyrrolidin-2-one], the Ki (read-out: NR2B Binding Ki) was not below 5000 nM. With `O=C1[C@@H](N2CC[C@@H](c3ccc(O)cc3)[C@H](F)C2)CCN1Cc1ccccc1` [Example 57, (S)-1-Benzyl-3-((3S,4S)-3-fluoro-4-(4-hydroxyphenyl)piperidin-1-yl)pyrrolidin-2-one], the Ki (read-out: NR2B Binding Ki) amounted to 490 nM.

Regarding `O=C1[C@@H](N2CC[C@H](c3ccc(O)cc3)[C@@H](F)C2)CCN1Cc1ccc(Cl)c(F)c1` [Example 82, (S)-1-(4-Chloro-3-fluorobenzyl)-3-((3R,4R)-3-fluoro-4-(4-hydroxyphenyl)piperidin-1-yl)pyrrolidin-2-one], under “read-out: NR2B Binding Ki”, the Ki is 860 nM. Same read-out and setting: the result for `O=C1[C@H](N2CCC(c3ccc(O)cc3)CC2)CCN1Cc1ccc(Cl)cc1` [Example 18b, (R)-1-(4-Chlorobenzyl)-3-(4-(4-hydroxyphenyl)piperidin-1-yl)pyrrolidin-2-one] reads 1.5 nM; that for `Cc1ccc(CN2CC[C@H](N3CC[C@@H](c4ccc(O)cc4)[C@H](F)C3)C2=O)cc1F` [Example 47, P-1, (S)-3-((3S,4S)-3-Fluoro-4-(4-hydroxyphenyl)piperidin-1-yl)-1-(3-fluoro-4-methylbenzyl)pyrrolidin-2-one], 470 nM; that for `O=C1C(N2CC[C@H](c3ccc(O)cc3)[C@@H](F)C2)CCN1Cc1ccc(OC(F)F)cc1` (stereo partly drawn) [Example 78, 1-(4-(Difluoromethoxy)benzyl)-3-((3R,4R)-3-fluoro-4-(4-hydroxyphenyl)piperidin-1-yl)pyrrolidin-2-one], 190 nM. With `O=C1C(N2CCCCC(c3ccc(O)cc3)C2)CCN1Cc1ccc(F)cc1` (stereo not shown) [Example 31, 1-(4-Fluorobenzyl)-3-(3-(4-hydroxyphenyl)azepan-1-yl)pyrrolidin-2-one], the Ki (read-out: NR2B Binding Ki) was determined as 800 nM. The same measure, in the same setting: the result for `O=C1[C@@H](N2CC[C@H](c3ccc(O)cc3)[C@@H](F)C2)CCN1Cc1ccc(Cl)cc1` [Example 80, (S)-1-(4-Chlorobenzyl)-3-((3R,4R)-3-fluoro-4-(4-hydroxyphenyl)piperidin-1-yl)pyrrolidin-2-one] reads 560 nM; that for `Cc1ccc(CN2CC[C@H](N3CC[C@H](c4ccc(O)cc4)[C@@H](F)C3)C2=O)cc1F` [Example 47, P-2, (S)-3-((3R,4R)-3-fluoro-4-(4-hydroxyphenyl)piperidin-1-yl)-1-(3-fluoro-4-methylbenzyl)pyrrolidin-2-one], 470 nM; that for `O=C1[C@H](N2CC[C@@H](c3ccc(O)cc3)[C@H](F)C2)CCN1Cc1ccc(Cl)c(F)c1` [Example 67, (R)-1-(4-Chloro-3-fluorobenzyl)-3-((3S,4S)-3-fluoro-4-(4-hydroxyphenyl)piperidin-1-yl)pyrrolidin-2-one], 6.5 nM.

For the compound `Cc1cccc(CN2CCC(N3CC[C@H](c4ccc(O)cc4)[C@@H](F)C3)C2=O)c1` (stereo partly drawn) [Example 77, 3-((3R,4R)-3-Fluoro-4-(4-hydroxyphenyl)piperidin-1-yl)-1-(3-methylbenzyl)pyrrolidin-2-one], the inhibition constant Ki (read-out: NR2B Binding Ki) is 27 nM.

Consider `O=C1C(N2CCC(c3ccc(O)cc3)C(O)C2)CCN1Cc1ccc(F)cc1` (single isomer, unassigned) [Example 9a, 1-(4-Fluorobenzyl)-3-(3-hydroxy-4-(4-hydroxyphenyl)piperidin-1-yl)pyrrolidin-2-one], for which the Ki (read-out: NR2B Binding Ki) is 180 nM. The same measure, in the same setting: for `O=C1[C@H](N2CC[C@H](c3ccc(O)cc3)[C@@H](F)C2)CCN1Cc1ccc(Cl)cc1` [Example 81, (R)-1-(4-Chlorobenzyl)-3-((3R,4R)-3-fluoro-4-(4-hydroxyphenyl)piperidin-1-yl)pyrrolidin-2-one] the value was 3.8 nM. Same read-out and setting: the result for `O=C1[C@@H](N2CCC(c3ccc(O)cc3)C(F)(F)C2)CCN1Cc1ccc(F)c(F)c1` (single isomer, unassigned) [Example 108, P-1] reads 1200 nM. Same read-out and setting: the result for `Cc1ccc(CN2CCC(N3CC(c4ccc(O)cc4)C3)C2=O)cc1` (stereo not shown) [Example 27, 3-(3-(4-Hydroxyphenyl)azetidin-1-yl)-1-(4-methylbenzyl)pyrrolidin-2-one] reads 20 nM; that for `C[C@@H](c1ccccc1)N1CCC(N2CC[C@H](c3ccc(O)cc3)[C@@H](F)C2)C1=O` (stereo partly drawn) [Example 84, 3-((3R,4R)-3-Fluoro-4-(4-hydroxyphenyl)piperidin-1-yl)-1-((S)-1-phenylethyl)pyrrolidin-2-one], 950 nM; that for `O=C1C(N2CCC(c3ccc(O)cc3)C(F)(F)C2)CCN1Cc1ccc(Cl)c(Cl)c1` (stereo not shown) [Example 98, 1-(3,4-Dichlorobenzyl)-3-(3,3-difluoro-4-(4-hydroxyphenyl)piperidin-1-yl)pyrrolidin-2-one], 230 nM. Take `O=C1C(N2CCC(c3ccc(O)c(F)c3)CC2)CCN1Cc1ccccc1` (stereo not shown) [Example 30, 1-Benzyl-3-(4-(3-fluoro-4-hydroxyphenyl)piperidin-1-yl)pyrrolidin-2-one]: for the setting “read-out: NR2B Binding Ki”, the Ki was determined as 4.7 nM.

Take `C[C@@H](c1ccccc1)N1CC[C@H](N2CCC(c3ccc(O)cc3)CC2)C1=O` [Example 33a, (S)-3-(4-(4-Hydroxyphenyl)piperidin-1-yl)-1-((S)-1-phenylethyl)pyrrolidin-2-one]: the Ki (read-out: NR2B Binding Ki) was not below 5000 nM.
